Source: PMC8217266 (Clinical Pharmacology and Therapeutics, 2021)

What was measured:
human MATE2 = human MATE2 (Homo sapiens, UniProt Q86VL8)
[1] = test system: uric acid, a biomarker of BCRP activity; assay: UCSF EHR analysis: serum/plasma uric acid, on vs off drug; type: in vivo, human
P-gp = P-gp (Homo sapiens, UniProt P08183); assay: biochemical
human OAT3 = molecular target: T1, human OAT3 (Homo sapiens, UniProt Q8TCC7); conditions: for Cu,max/IC50 OAT3: human
T1 sequence (Q8TCC7 1-542): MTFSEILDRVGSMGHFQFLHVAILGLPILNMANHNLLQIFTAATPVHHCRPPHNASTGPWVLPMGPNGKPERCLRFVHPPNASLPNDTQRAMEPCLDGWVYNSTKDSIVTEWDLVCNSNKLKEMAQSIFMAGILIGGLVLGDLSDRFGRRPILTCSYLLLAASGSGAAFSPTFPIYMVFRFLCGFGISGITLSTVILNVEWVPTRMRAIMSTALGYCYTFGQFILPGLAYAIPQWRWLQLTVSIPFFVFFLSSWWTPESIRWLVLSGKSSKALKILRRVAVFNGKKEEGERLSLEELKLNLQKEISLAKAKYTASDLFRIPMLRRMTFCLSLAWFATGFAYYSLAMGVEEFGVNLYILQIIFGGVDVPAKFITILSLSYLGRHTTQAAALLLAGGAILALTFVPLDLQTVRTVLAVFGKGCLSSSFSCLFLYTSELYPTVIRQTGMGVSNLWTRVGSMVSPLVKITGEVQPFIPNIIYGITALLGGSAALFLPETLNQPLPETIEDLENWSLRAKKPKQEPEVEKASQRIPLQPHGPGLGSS

human OATP1B3 = molecular target: T2, human OATP1B3 (Homo sapiens, UniProt Q9NPD5)
T2 sequence (Q9NPD5 1-702): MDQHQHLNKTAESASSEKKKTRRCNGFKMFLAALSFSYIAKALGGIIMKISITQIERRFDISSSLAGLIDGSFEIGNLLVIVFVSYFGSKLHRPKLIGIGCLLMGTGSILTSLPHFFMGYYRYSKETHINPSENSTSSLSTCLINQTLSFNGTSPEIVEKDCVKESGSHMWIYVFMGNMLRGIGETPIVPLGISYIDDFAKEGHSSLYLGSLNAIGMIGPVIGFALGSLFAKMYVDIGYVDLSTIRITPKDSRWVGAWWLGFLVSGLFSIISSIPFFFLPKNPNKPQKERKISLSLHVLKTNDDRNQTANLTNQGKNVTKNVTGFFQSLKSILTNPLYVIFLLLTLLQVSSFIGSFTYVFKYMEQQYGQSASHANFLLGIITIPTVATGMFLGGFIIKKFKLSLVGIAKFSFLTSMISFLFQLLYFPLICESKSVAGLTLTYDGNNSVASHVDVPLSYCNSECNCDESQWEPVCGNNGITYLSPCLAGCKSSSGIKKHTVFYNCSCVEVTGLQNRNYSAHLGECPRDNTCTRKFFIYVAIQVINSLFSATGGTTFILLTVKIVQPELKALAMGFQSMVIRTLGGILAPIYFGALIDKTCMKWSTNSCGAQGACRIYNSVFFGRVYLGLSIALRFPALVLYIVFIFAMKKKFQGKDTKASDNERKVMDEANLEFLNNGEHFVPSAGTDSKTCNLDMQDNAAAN

human OCT1 = molecular target: T3, human OCT1 (Homo sapiens, UniProt O15245); conditions: for Iu,in,max/IC50 OCT1: human
T3 sequence (O15245 1-554): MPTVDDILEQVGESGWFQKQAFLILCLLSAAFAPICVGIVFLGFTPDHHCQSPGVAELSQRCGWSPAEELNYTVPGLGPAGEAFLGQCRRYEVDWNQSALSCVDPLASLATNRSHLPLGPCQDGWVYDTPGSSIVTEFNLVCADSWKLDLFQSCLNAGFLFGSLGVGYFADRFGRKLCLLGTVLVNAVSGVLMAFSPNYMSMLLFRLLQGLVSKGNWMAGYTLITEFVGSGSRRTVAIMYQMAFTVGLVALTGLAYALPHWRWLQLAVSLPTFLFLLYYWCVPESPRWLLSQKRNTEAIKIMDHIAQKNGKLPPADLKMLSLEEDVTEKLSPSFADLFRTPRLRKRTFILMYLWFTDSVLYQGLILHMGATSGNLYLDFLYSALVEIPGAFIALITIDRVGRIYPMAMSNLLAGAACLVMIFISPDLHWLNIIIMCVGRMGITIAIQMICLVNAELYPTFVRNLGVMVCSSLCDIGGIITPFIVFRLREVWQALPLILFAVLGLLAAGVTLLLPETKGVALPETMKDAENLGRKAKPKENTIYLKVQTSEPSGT

human OCT2 = molecular target: T4, human OCT2 (Homo sapiens, UniProt O15244)
T4 sequence (O15244 1-555): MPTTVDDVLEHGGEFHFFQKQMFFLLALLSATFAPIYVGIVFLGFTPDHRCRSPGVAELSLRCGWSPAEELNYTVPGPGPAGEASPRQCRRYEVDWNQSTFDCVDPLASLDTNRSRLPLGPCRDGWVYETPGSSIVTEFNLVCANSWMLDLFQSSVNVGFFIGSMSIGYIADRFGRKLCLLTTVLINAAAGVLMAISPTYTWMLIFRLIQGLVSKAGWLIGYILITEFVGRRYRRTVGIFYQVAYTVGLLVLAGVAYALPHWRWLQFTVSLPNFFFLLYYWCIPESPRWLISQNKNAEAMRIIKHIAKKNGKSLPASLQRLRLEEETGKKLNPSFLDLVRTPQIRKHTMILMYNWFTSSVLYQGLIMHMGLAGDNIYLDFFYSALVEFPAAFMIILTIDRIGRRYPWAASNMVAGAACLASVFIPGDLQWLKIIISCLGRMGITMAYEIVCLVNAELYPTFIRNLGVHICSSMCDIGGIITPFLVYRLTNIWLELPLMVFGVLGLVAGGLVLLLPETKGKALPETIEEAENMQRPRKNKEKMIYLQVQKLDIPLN

[2] = test system: triglycerides, LDL cholesterol, and total cholesterol, biomarkers of OCT1 activity; assay: UCSF EHR analysis: lipid levels in patients with HIV, on vs off drug; type: in vivo, human

P-gp, sequence (P08183 whole entry): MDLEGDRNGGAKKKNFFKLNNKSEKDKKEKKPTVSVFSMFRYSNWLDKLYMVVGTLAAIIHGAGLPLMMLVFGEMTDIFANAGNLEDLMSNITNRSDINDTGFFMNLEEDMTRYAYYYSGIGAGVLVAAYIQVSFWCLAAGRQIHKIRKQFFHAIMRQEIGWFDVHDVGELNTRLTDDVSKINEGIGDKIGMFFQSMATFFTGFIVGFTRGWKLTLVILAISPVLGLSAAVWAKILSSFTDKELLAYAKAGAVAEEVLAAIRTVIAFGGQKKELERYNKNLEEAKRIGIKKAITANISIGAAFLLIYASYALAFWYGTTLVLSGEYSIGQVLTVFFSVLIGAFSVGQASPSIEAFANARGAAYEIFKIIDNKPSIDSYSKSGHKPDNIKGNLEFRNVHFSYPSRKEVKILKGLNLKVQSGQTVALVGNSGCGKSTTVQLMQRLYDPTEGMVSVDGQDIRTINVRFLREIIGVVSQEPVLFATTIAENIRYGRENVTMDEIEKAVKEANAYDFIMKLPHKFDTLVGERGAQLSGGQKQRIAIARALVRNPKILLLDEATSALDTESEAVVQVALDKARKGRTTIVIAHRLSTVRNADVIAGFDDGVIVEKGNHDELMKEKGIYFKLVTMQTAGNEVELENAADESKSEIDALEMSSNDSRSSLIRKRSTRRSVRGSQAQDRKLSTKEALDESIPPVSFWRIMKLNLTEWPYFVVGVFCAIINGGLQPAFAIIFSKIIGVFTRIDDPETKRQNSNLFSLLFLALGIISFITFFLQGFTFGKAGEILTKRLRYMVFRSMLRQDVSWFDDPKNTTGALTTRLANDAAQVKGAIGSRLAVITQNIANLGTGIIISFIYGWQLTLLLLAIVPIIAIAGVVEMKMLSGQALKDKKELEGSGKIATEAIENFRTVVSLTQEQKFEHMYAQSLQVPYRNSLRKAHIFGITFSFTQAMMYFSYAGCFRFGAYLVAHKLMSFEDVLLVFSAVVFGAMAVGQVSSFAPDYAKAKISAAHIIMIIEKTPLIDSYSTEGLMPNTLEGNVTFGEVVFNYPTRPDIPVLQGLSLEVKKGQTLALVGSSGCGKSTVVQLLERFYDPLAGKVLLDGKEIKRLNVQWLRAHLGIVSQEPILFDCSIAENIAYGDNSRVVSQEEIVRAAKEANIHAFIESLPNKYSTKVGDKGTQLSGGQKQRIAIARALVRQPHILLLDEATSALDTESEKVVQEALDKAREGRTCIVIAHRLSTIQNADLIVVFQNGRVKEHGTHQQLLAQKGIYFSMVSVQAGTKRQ
human MATE2, sequence (Q86VL8 1-566 isoform Q86VL8-3): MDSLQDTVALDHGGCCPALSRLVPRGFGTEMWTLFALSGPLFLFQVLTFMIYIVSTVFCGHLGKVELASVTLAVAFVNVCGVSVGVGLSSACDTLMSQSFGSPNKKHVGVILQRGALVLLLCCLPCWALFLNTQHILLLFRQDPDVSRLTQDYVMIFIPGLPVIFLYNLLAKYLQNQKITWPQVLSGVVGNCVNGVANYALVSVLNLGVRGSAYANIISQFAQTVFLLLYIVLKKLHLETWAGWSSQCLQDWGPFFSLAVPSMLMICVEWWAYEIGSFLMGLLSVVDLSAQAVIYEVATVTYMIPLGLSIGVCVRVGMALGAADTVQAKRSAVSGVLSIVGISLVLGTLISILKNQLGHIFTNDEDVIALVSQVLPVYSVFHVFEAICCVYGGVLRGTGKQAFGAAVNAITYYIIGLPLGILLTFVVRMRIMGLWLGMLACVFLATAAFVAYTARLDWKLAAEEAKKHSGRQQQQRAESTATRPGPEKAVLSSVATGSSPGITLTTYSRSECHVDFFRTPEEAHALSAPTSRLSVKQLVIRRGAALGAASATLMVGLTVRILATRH

Structure (SMILES) | Cu,max/IC50 MATE2-K (human MATE2) | IC50 (P-gp) | OAT3 inhibited more potently relative to OAT1 (human OAT3) | Cu,max/IC50 OAT3 (human OAT3) | Iu,in,max/IC50 OATP1B3 (human OATP1B3) | Iu,in,max/IC50 OCT1 (human OCT1) | Cu,max/IC50 OCT2 (human OCT2) | also measured
CCCc1nn(C)c2c(=O)[nH]c(-c3cc(S(=O)(=O)N4CCN(C)CC4)ccc3OCC)nc12 [Sildenafil] | 0.003 | 16 µM | ≥ 10 fold | 0.002 | – | – | – | Median SUA On drug ([1]; criteria 1, off drug 5.7): 6.7/5.7 mg/dL; Median SUA On drug ([1]; criteria 2, off drug 5.6): 6.9/5.6 mg/dL; Median SUA On drug ([1]; main analysis, matched 1:5, off drug 5.7, P <2.2E-16): 6.6/5.7 mg/dL
CCOC(=O)c1c(CSc2ccccc2)n(C)c2cc(Br)c(O)c(CN(C)C)c12 [Umifenovir (Arbidol), Umifenovir] | 0.02 | 16 ± 2 µM | – | 0.002 | 0.73 | 3.93 | 0.006 | OCT1 inhibited more potently relative to OCT2 (human OCT1): ≥ 10 fold
N#CC[C@H](C1CCCC1)n1cc(-c2ncnc3[nH]ccc23)cn1 [Ruxolitinib] | – | > 100 µM | ≥ 10 fold | 0.005 | 0.008 | 0.02 | 0.003 | –
CC(C)CN(C[C@@H](O)[C@H](Cc1ccccc1)NC(=O)O[C@H]1CO[C@H]2OCC[C@H]21)S(=O)(=O)c1ccc(N)cc1 [Darunavir] | – | 16 µM | – | – | – | – | – | LDL cholesterol, Median On drug ([2]; matched 1:2, off drug 95): 100/95 mg/dL; Total cholesterol, Median On drug ([2]; matched 1:2, off drug 166): 180/166 mg/dL; LDL cholesterol, Average On drug ([2]; matched 1:2, on n=357, off n=714, off drug 98.7, P 0.0077): 105/98.7 mg/dL; Total cholesterol, Average On drug ([2]; matched 1:2, on n=364, off n=728, off drug 170, P 5.18E-06): 183/170 mg/dL; Triglyceride, Average On drug ([2]; matched 1:2, on n=386, off n=772, off drug 160, P 0.00022): 180/160 mg/dL
CCC(CC)COC(=O)[C@H](C)N[P@](=O)(OC[C@H]1O[C@@](C#N)(c2ccc3c(N)ncnn23)[C@H](O)[C@@H]1O)Oc1ccccc1 [Remdesivir] | – | 14 µM | – | – | – | – | – | –
